Reference: patent publication US4997652A, “Biodegradable ocular implants” (priority 1989, dated 1991)
Where “and” joins values, the source holds several entries; their conditions need not be identical. Equal values may be shown once. Read-outs that look alike come from different tables or passages of the source.

Assays:
in vivo = test: in vivo; set-up: species or system New Zealand white rabbits; settings: rabbit
Procedure: 1. 50 μg/0.1 ml doxorubicin was injected into the AC of 10 New Zealand white rabbits. The AC was tapped for doxorubicin assay.

eye [1] = test: Ocular toxicity observation after AC injection of unencapsulated doxorubicin; assay type: in vivo, New Zealand white rabbits
Procedure: 2. 50 μg/0.10 ml doxorubicin was injected into the […] in each of two rabbits. The contralateral eye was given 0.10 ml of normal saline.

[2] = Residual vitreous doxorubicin after injection of doxorubicin into the PC; assay type: in vivo, rabbits
Procedure: 1. 50 μg/0.1 ml doxorubicin was injected into the posterior chamber (PC) of each of 10 rabbits. The contralateral eye served as control.

eye [3] = test: Clinical observation of eye after PC injection of doxorubicin; assay type: in vivo, rabbits; settings: free drug
Procedure: 2. 50 μg/0.10 ml of doxorubicin was injected into one eye of two animals for clinical observation for one week. Saline control was injected into the contralateral eye.

[4] = 50 ug into PC right eye, free drug, 0 hours

For `COc1cccc2c1C(=O)c1c(O)c3c(c(O)c1C2=O)C[C@@](O)(C(=O)CO)C[C@@H]3O[C@H]1C[C@H](N)[C@H](O)[C@H](C)O1` [doxorubicin], the half-life (in vivo) was ~1 h, the ocular toxicity (eye [1]) was “causes ocular inflammation and corneal edema” and the “time of ocular inflammation and corneal edema after AC injection” value (eye [1]) was 2 to 3 days. The “Residual vitreous doxorubicin, Mean ± SD” value [2, 4] was 8.55 ± 0.24 µg/mL, the “Residual vitreous doxorubicin, single sample” value [2, 4] was 8.40 µg/mL and 8.74 µg/mL and the “Residual vitreous doxorubicin, single sample” value ([2]; 50 ug into PC right eye, free drug, 2 hours, 120 min) was 4.65 µg/mL. For the same molecule, the “Residual vitreous doxorubicin, single sample” value ([2]; 50 ug into PC right eye, free drug, 4 hours, 240 min) was 3.4 µg/mL, the “Residual vitreous doxorubicin, single sample” value ([2]; 50 ug into PC right eye, free drug, 8 hours, 480 min) was 0.75 µg/mL and the “Residual vitreous doxorubicin, single sample” value ([2]; 50 ug into PC right eye, free drug, 16 hours, 960 min) was 0.21 µg/mL. It also gave a concentration at 2 h ([2]; rabbit, vitreous, 0.05 mg, 50 ug into PC right eye, free drug, 2 hours, read-out: Residual vitreous doxorubicin, Mean ± SD) of 5590 ± 1340 ng/mL, a concentration at 2 h ([2]; rabbit, vitreous, 0.05 mg, 50 ug into PC right eye, free drug, 2 hours, read-out: Residual vitreous doxorubicin, single sample) of 6540 ng/mL and a concentration at 4 h ([2]; rabbit, vitreous, 0.05 mg, 50 ug into PC right eye, free drug, 4 hours, read-out: Residual vitreous doxorubicin, Mean ± SD) of 3850 ± 640 ng/mL. It also gave a concentration at 4 h ([2]; rabbit, vitreous, 0.05 mg, 50 ug into PC right eye, free drug, 4 hours, read-out: Residual vitreous doxorubicin, single sample) of 4300 ng/mL, a concentration at 8 h ([2]; rabbit, vitreous, 0.05 mg, 50 ug into PC right eye, free drug, 8 hours, read-out: Residual vitreous doxorubicin, Mean ± SD) of 860 ± 160 ng/mL and a concentration at 8 h ([2]; rabbit, vitreous, 0.05 mg, 50 ug into PC right eye, free drug, 8 hours, read-out: Residual vitreous doxorubicin, single sample) of 980 ng/mL. It also gave a concentration at 16 h ([2]; rabbit, vitreous, 0.05 mg, 50 ug into PC right eye, free drug, 16 hours, read-out: Residual vitreous doxorubicin, Mean ± SD) of 240 ± 40 ng/mL, a concentration at 16 h ([2]; rabbit, vitreous, 0.05 mg, 50 ug into PC right eye, free drug, 16 hours, read-out: Residual vitreous doxorubicin, single sample) of 260 ng/mL and a half-life ([2]; rabbit, vitreous, 0.05 mg, PC injection, 50 ug, read-out: halflife of free doxorubicin (converted)) of ~3 h. For the same molecule, the “clinical tolerance of PC injection” value (eye [3]) was “well tolerated” and the evidence of toxicity (eye [3]) was “No evidence of toxicity”.
